Results: patent US20260262643A1, “HERBICIDAL BENZOXAZINES” (FMC CORPORATION, priority 2022, published 2026)

Key:
[1] = system: galium; test: Test A postemergence; type: in vivo, Galium aparine
Procedure, shortened: (§1)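 Visual injury ratings on a 0–100 scale (100 = complete control) versus untreated controls, taken 10 days after treatment in greenhouse. Preemergence: directed soil spray onto seeded loam/sand. Postemergence: foliar application at one- to two-leaf stage, plants 2–10 cm. Formulation: non-phytotoxic solvent plus surfactant.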

[2] = system: kochia; test: Test A preemergence; type: in vivo, Bassia scoparia
Procedure, shortened: as §1

[3] = system: soybean; test: Test A postemergence; type: in vivo, Glycine max
Procedure, shortened: as §1

[4] = system: barnyardgrass; test: Test B flooded paddy test; type: in vivo, Echinochloa crus-galli; conditions: 250 g ai/ha, Flood, 13 days, 0 to 100 scale (0 no effect, 100 complete control)
Procedure, shortened: (§2)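 Species grown to 2-leaf stage; pots flooded 3 cm above soil and compound applied directly to paddy water, depth maintained throughout. After 13 days in greenhouse, plants visually rated against controls on 0–100 scale (0 no effect, 100 complete control); dash means no result.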

[5] = system: oat, wild; test: Test A postemergence; type: in vivo, Avena fatua
Procedure, shortened: as §1

[6] = system: wheat; test: Test A postemergence; type: in vivo, Triticum aestivum
Procedure, shortened: as §1

[7] = system: ryegrass, Italian; test: Test A postemergence; type: in vivo, Lolium multiflorum
Procedure, shortened: as §1

[8] = system: ragweed; test: Test A preemergence; type: in vivo, Ambrosia artemisiifolia
Procedure, shortened: as §1

[9] = system: ducksalad; test: Test B flooded paddy test; type: in vivo, Heteranthera limosa; conditions: 250 g ai/ha, Flood, 13 days, 0 to 100 scale (0 no effect, 100 complete control)
Procedure, shortened: as §2

[10] = system: corn; test: Test A postemergence; type: in vivo, Zea mays
Procedure, shortened: as §1

[11] = system: foxtail, giant; test: Test A postemergence; type: in vivo, Setaria faberi
Procedure, shortened: as §1

[12] = system: pigweed, palmer; test: Test A preemergence; type: in vivo, Amaranthus palmeri
Procedure, shortened: as §1

[13] = system: soybean; test: Test A preemergence; type: in vivo, Glycine max
Procedure, shortened: as §1

[14] = system: pigweed, palmer; test: Test A postemergence; type: in vivo, Amaranthus palmeri
Procedure, shortened: as §1

[15] = system: wheat; test: Test A preemergence; type: in vivo, Triticum aestivum
Procedure, shortened: as §1

[16] = system: ryegrass, Italian; test: Test A preemergence; type: in vivo, Lolium multiflorum
Procedure, shortened: as §1

[17] = system: blackgrass; test: Test A preemergence; type: in vivo, Alopecurus myosuroides
Procedure, shortened: as §1

[18] = system: ragweed; test: Test A postemergence; type: in vivo, Ambrosia artemisiifolia
Procedure, shortened: as §1

[19] = system: rice; test: Test B flooded paddy test; type: in vivo, Oryza sativa; conditions: 250 g ai/ha, Flood, 13 days, 0 to 100 scale (0 no effect, 100 complete control)
Procedure, shortened: as §2

[20] = system: foxtail, giant; test: Test A preemergence; type: in vivo, Setaria faberi
Procedure, shortened: as §1

[21] = system: goosegrass; test: Test A postemergence; type: in vivo, Eleusine indica
Procedure, shortened: as §1

[22] = system: blackgrass; test: Test A postemergence; type: in vivo, Alopecurus myosuroides
Procedure, shortened: as §1

[23] = system: sedge, umbrella; test: Test B flooded paddy test; type: in vivo, Cyperus difformis; conditions: 250 g ai/ha, Flood, 13 days, 0 to 100 scale (0 no effect, 100 complete control)
Procedure, shortened: as §2

[24] = system: goosegrass; test: Test A preemergence; type: in vivo, Eleusine indica
Procedure, shortened: as §1

[25] = system: corn; test: Test A preemergence; type: in vivo, Zea mays
Procedure, shortened: as §1

[26] = system: oat, wild; test: Test A preemergence; type: in vivo, Avena fatua
Source text: Seeds of plant species selected from barnyardgrass (Echinochloa crusgalli), blackgrass (Alopecurus myosuroides), corn (Zea mays), foxtail, giant (giant foxtail, Setaria faberi), goosegrass (Eleusine indica), kochia (Bassia scoparia), oat, wild (wild oat, Avena fatua), pigweed, palmer (palmer amaranth, palmer pigweed, Amaranthus palmeri), Pigweed, Redroot (redroot pigweed, Amaranthus retroflexus), ragweed (common ragweed, Ambrosia artemisiifolia), ryegrass, Italian (italian ryegrass, Lolium multiflorum), soybean (Glycine max), and wheat (Triticum aestivum) were planted into a blend of loam soil and sand and treated preemergence with a directed soil spray using test chemicals formulated in a non-phytotoxic solvent mixture which included a surfactant. At the same time, plants selected from these crops and weed species and also galium (catchweed bedstraw, Galium aparine) and horseweed (Erigeron canadensis) were planted in pots containing the same blend of loam soil and sand and treated with postemergence applications of test chemicals formulated in the same manner. Plants ranged in height from 2 to 10 cm and were in the one- to two-leaf stage for the postemergence treatment. Treated plants and untreated controls were maintained in a greenhouse for 10 days, after which time all treated plants were compared to untreated controls and visually evaluated for injury. Plant response ratings, summarized in Table A, are based on a 0 to 100 scale where 0 is no effect and 100 is complete control. A dash (-) response means no test result.

[27] = system: kochia; test: Test A postemergence; type: in vivo, Bassia scoparia
Procedure, shortened: as §1

[28] = 125 g ai/ha, postemergence, 10 days, visual injury, 0 to 100 scale (0 no effect, 100 complete control)
[29] = 500 g ai/ha, Postemergence, 0 to 100 scale
[30] = 125 g ai/ha, visual injury after 10 days, 0 to 100 scale, 0 is no effect, 100 is complete control
[31] = 500 g ai/ha, 0 to 100 scale (0 no effect, 100 complete control), 10 days

## C[C@H]1CN(C(=O)c2cccc(-n3cncn3)c2)c2cccc(C(F)(F)F)c2O1 [Compound 47]
[1]; [28]
  Plant response rating, Galium: 60
[1]; [29]
  Plant response rating, Galium: 90
[2]; [30]
  Plant response rating, Kochia: 0
[2]; [31]
  Plant response rating, Kochia: 50
[3]; [28]
  Plant response rating, Soybean: 80
[3]; [29]
  Plant response rating, Soybean: 100
[4]
  Plant response rating, Barnyardgrass: 0
[5]; [28]
  Plant response rating, Oat, Wild: 10
[5]; [29]
  Plant response rating, Oat, Wild: 30
[6]; [28]
  Plant response rating, Wheat: 20
[6]; [29]
  Plant response rating, Wheat: 40
[7]; [28]
  Plant response rating, Ryegrass, Italian: 30
[7]; [29]
  Plant response rating, Ryegrass, Italian: 90
[8]; [30]
  Plant response rating, Ragweed: 0
[8]; [31]
  Plant response rating, Ragweed: 0
[9]
  Plant response rating, Ducksalad: 0
[10]; [28]
  Plant response rating, Corn: 30
[10]; [29]
  Plant response rating, Corn: 60
[11]; [28]
  Plant response rating, Foxtail, Giant: 30
[11]; [29]
  Plant response rating, Foxtail, Giant: 90
[12]; [30]
  Plant response rating, Pigweed, Palmer: 60
[12]; [31]
  Plant response rating, Pigweed, Palmer: 90
[13]; [30]
  Plant response rating, Soybean: 0
[13]; [31]
  Plant response rating, Soybean: 40
[14]; [28]
  Plant response rating, Pigweed, Palmer: 70
[14]; [29]
  Plant response rating, Pigweed, Palmer: 90
[15]; [30]
  Plant response rating, Wheat: 0
[15]; [31]
  Plant response rating, Wheat: 20
[16]; [30]
  Plant response rating, Ryegrass, Italian: 80
[16]; [31]
  Plant response rating, Ryegrass, Italian: 90
[17]; [30]
  Plant response rating, Blackgrass: 70
[17]; [31]
  Plant response rating, Blackgrass: 90
[18]; [28]
  Plant response rating, Ragweed: 0
[18]; [29]
  Plant response rating, Ragweed: 0
[19]
  Plant response rating, Rice: 0
[20]; [30]
  Plant response rating, Foxtail, Giant: 60
[20]; [31]
  Plant response rating, Foxtail, Giant: 90
[21]; [28]
  Plant response rating, Goosegrass: 0
[21]; [29]
  Plant response rating, Goosegrass: 20
[22]; [28]
  Plant response rating, Blackgrass: 10
[22]; [29]
  Plant response rating, Blackgrass: 60
[23]
  Plant response rating, Sedge, Umbrella: 0
[24]; [30]
  Plant response rating, Goosegrass: 80
[24]; [31]
  Plant response rating, Goosegrass: 100
[25]; [30]
  Plant response rating, Corn: 0
[25]; [31]
  Plant response rating, Corn: 0
[26]; [30]
  Plant response rating, Oat, Wild: 10
[26]; [31]
  Plant response rating, Oat, Wild: 30
[27]; [28]
  Plant response rating, Kochia: 50
[27]; [29]
  Plant response rating, Kochia: 90

## C[C@H]1CN(C(=O)c2cccc(-n3cncn3)c2)c2cccc(OC(F)(F)F)c2O1 [Compound 48]
[1]; [28]
  Plant response rating, Galium: 40
[1]; [29]
  Plant response rating, Galium: 60
[2]; [30]
  Plant response rating, Kochia: 0
[2]; [31]
  Plant response rating, Kochia: 30
[3]; [28]
  Plant response rating, Soybean: 70
[3]; [29]
  Plant response rating, Soybean: 100
[4]
  Plant response rating, Barnyardgrass: 0
[5]; [28]
  Plant response rating, Oat, Wild: 10
[5]; [29]
  Plant response rating, Oat, Wild: 30
[6]; [28]
  Plant response rating, Wheat: 10
[6]; [29]
  Plant response rating, Wheat: 30
[7]; [28]
  Plant response rating, Ryegrass, Italian: 20
[7]; [29]
  Plant response rating, Ryegrass, Italian: 40
[8]; [30]
  Plant response rating, Ragweed: 0
[8]; [31]
  Plant response rating, Ragweed: 0
[9]
  Plant response rating, Ducksalad: 0
[10]; [28]
  Plant response rating, Corn: 10
[10]; [29]
  Plant response rating, Corn: 60
[11]; [28]
  Plant response rating, Foxtail, Giant: 20
[11]; [29]
  Plant response rating, Foxtail, Giant: 70
[12]; [30]
  Plant response rating, Pigweed, Palmer: 30
[12]; [31]
  Plant response rating, Pigweed, Palmer: 90
[13]; [30]
  Plant response rating, Soybean: 0
[13]; [31]
  Plant response rating, Soybean: 0
[14]; [28]
  Plant response rating, Pigweed, Palmer: 30
[14]; [29]
  Plant response rating, Pigweed, Palmer: 70
[15]; [30]
  Plant response rating, Wheat: 0
[15]; [31]
  Plant response rating, Wheat: 0
[16]; [30]
  Plant response rating, Ryegrass, Italian: 70
[16]; [31]
  Plant response rating, Ryegrass, Italian: 100
[17]; [30]
  Plant response rating, Blackgrass: 20
[17]; [31]
  Plant response rating, Blackgrass: 80
[18]; [28]
  Plant response rating, Ragweed: 0
[18]; [29]
  Plant response rating, Ragweed: 20
[19]
  Plant response rating, Rice: 0
[20]; [30]
  Plant response rating, Foxtail, Giant: 20
[20]; [31]
  Plant response rating, Foxtail, Giant: 90
[21]; [28]
  Plant response rating, Goosegrass: 0
[21]; [29]
  Plant response rating, Goosegrass: 40
[22]; [28]
  Plant response rating, Blackgrass: 0
[22]; [29]
  Plant response rating, Blackgrass: 30
[23]
  Plant response rating, Sedge, Umbrella: 0
[24]; [30]
  Plant response rating, Goosegrass: 40
[24]; [31]
  Plant response rating, Goosegrass: 80
[25]; [30]
  Plant response rating, Corn: 0
[25]; [31]
  Plant response rating, Corn: 30
[26]; [30]
  Plant response rating, Oat, Wild: 20
[26]; [31]
  Plant response rating, Oat, Wild: 30
[27]; [28]
  Plant response rating, Kochia: 20
[27]; [29]
  Plant response rating, Kochia: 50
